# Data taken from paper PMC7913237, “Small-Molecule Anti-HIV-1 Agents Based on HIV-1 Capsid Proteins” (Biomolecules, 2021).
# Where two headings read alike, the source gives them in different places.
# Assays:
# Format in all cases: cell-based
# [1] = tested on: X4-HIV-1 (NL4-3 strain); assay: Anti-HIV activity: protection against HIV-1 (NL4-3 strain)-induced cytopathogenicity in MT-4 cells, MTT assay; conditions: for EC50: 50% protection from HIV-1 (NL4-3 strain)-induced cytopathogenicity in MT-4 cells, 5 days, mean or mean ± SD; for anti-HIV activity (in words): summary of MTT assay results; for inhibition at 25 µM: Human immunodeficiency virus 1, NL43, MT4, HIV-1 (NL4-3)-induced cytopathogenicity in MT-4 cells, printed in EC50 column
# Method: (§1) For virus preparation, 293T/17 cells (Invitrogen), which are maintained in Dulbecco’s modified Eagle medium (DMEM) containing 10% FBS, in a T-75 flask were transfected with 10 μg of the pNL4-3 construct by the calcium phosphate method. The supernatant was collected 48 h after transfection, passed through a 0.45 μm filter, and stored at −80 °C as a stock virus. Inhibitory activities of test compounds against X4-HIV-1 (NL4-3 strain)-induced cytopathogenicity in MT-4 cells, which are maintained in RPMI-1640 containing 10% FBS, were assessed by the MTT assay. Various concentrations of test compound solutions were added to HIV-1-infected MT-4 cells at multiplicity of infection (MOI) of 0.001, and placed in wells of a 96-well microplate. The test compounds and the reference compounds such as AZT and AMD3100 were diluted by two-fold and five-fold, respectively. After 5 days’ incubation at 37 °C in a CO2 incubator, the number of viable cells was determined by the MTT assay. Cytotoxicities of the test compounds were determined based on reduction of the viability of MT-4 cells by the MTT assay. The p24 antigen content in the culture supernatant was measured using HIV-1 p24 antigen enzyme-linked immunosorbent assay (ELISA) kit according to manufacturer’s instructions (Zeptometrix, Buffalo, NY, USA). A reverse transcriptase inhibitor, AZT, a CXCR4 antagonist, AMD3100 (Sigma Aldrich, St. Louis, MO, USA) were employed as positive control compounds with anti-HIV activity.
# (§2) The anti-HIV activity of the synthesized compounds was assessed based on protection against HIV-1 (NL4-3 strain)-induced cytopathogenicity in MT-4 cells by an MTT assay. The cytotoxicity of these compounds was determined based on reduction of the viability of MT-4 cells determined by an MTT assay.
# [2] = Cytotoxicity: reduction of the viability of MT-4 cells, MTT assay; conditions: human, MT-4 cells, 50% reduction of the viability of MT-4 cells
# Method: as §1, §2
# [3] = tested on: MT-4 cells; assay: as above; conditions: for concentration below which no cytotoxicity was exhibited: MT-4 cells; for cytotoxicity (in words): MT-4 cells MTT assay; for CC50: 50% reduction of the viability of MT-4 cells
# Method: as §1, §2
# [4] = tested on: HIV-1 (NL4-3 strain) p24 antigen production; assay: microbe, parasite or virus in culture
# Method: as §1
# These compounds were also evaluated by a different method, using an enzyme-linked immune sorbent assay (ELISA) based on their inhibitory effect against the viral p24 antigen expression in NL4-3 strain-infected MT-4 cells.
# [5] = Human immunodeficiency virus 1, NL43, MT4, 120 h
# [6] = Human immunodeficiency virus 1, NL43, MT4, read-out: p24 ELISA EC50, 50% inhibition of viral p24 antigen production in NL4-3 strain-infected MT-4 cells
Compound,"EC50 [1, 5] [µM]",anti-HIV activity (in words) [1],CC50 at 5 days [2] [µM],inhibition at 25 µM [1] [%],other results
COCC[C@H](C)OC(=O)[C@@H](N)c1ccccc1-c1c[nH]c2ccccc12 [Compound 30],26 ± 2.9,weak anti-HIV activity,> 50,–,concentration below which no cytotoxicity was exhibited [3]: ≥ 50 µM
CSCC[C@H](C)OC(=O)[C@@H](N)c1ccccc1-c1cccc2ccccc12 [Compound 22],–,weak anti-HIV activity,33 ± 1.5,31 ± 8.5,cytotoxicity (in words) [3]: relatively weak cytotoxicity
CC(C)SCC[C@H](C)OC(=O)[C@@H](N)c1ccccc1-c1c[nH]c2ccccc12 [Compound 35],10,–,18,–,–
C[C@@H](CCSc1ccccc1)OC(=O)[C@@H](N)c1ccccc1-c1c[nH]c2ccccc12 [Compound 36],11,–,17,–,–
"c1cc(CN2CCCNCCNCCCNCC2)ccc1CN1CCCNCCNCCCNCC1 [AMD3100, reference compound]",0.027 ± 0.0077,–,> 50,–,"EC50 [4, 6]: 0.029 µM"
"Cc1cn([C@H]2C[C@H](N=[N+]=[N-])[C@@H](CO)O2)c(=O)[nH]c1=O [AZT, reference compound]",–,–,–,–,"EC50 [1]: 0.024 ± 0.015 µM; CC50 [3]: 79 ± 42 µM; EC50 ([4]; 50% inhibition of viral p24 antigen production in NL4-3 strain-infected MT-4 cells, read-out: p24 ELISA EC50): 0.047 µM"
CSCC[C@@H](C)OC(=O)[C@@H](N)c1ccccc1-c1c[nH]c2ccccc12 [MKN-1B (1B)],24,moderate anti-HIV activity,37,–,"EC50 [4, 6]: 22 µM"
CSCC[C@H](C)OC(=O)[C@@H](N)c1ccccc1-c1c[nH]c2ccccc12 [MKN-1 (1)],–,high anti-HIV activity,–,–,"EC50 [1]: 4.5 ± 2.3 µM; CC50 [3]: 26 ± 8.8 µM; EC50 ([4]; read-out: p24 ELISA EC50, 50% inhibition of viral p24 antigen production in NL4-3 strain-infected MT-4 cells): 8.5 µM"
CSCC[C@H](C)OC(=O)[C@@H](N)c1ccccc1-c1csc2ccccc12 [Compound 28],–,weak anti-HIV activity,45,31,cytotoxicity (in words) [3]: relatively weak cytotoxicity
C[C@@H](CCS(C)(=O)=O)OC(=O)[C@@H](N)c1ccccc1-c1c[nH]c2ccccc12 [Compound 38],–,weak anti-HIV activity,> 50,34,concentration below which no cytotoxicity was exhibited [3]: ≥ 50 µM
CSCC[C@H](C)OC(=O)[C@@H](N)c1ccccc1-c1coc2ccccc12 [Compound 27],–,weak anti-HIV activity,34,11,cytotoxicity (in words) [3]: relatively weak cytotoxicity
CSCC[C@H](C)OC(=O)[C@@H](N)c1ccccc1-c1c[nH]c2ccccc12 [MKN-1A (1A)],8,significant anti-HIV activity,38,–,"EC50 [4, 6]: 14 µM"
C[C@@H](CCSC(C)(C)C)OC(=O)[C@@H](N)c1ccccc1-c1c[nH]c2ccccc12 [Compound 34],12,–,17,–,–
CSCC[C@H](C)OC(=O)[C@@H](N)c1ccccc1-c1ccc2ccccc2c1 [Compound 24],–,weak anti-HIV activity,30 ± 2,40 ± 4.6,cytotoxicity (in words) [3]: relatively weak cytotoxicity
